The test concerns the target T1, CCDC6-RET (Homo sapiens, UniProt P07949+Q16204+Q96SW2).
T1 construct: CCDC6 (natural N-terminal fusion partner, UniProt Q16204); endogenous in cells; host or cells: TPC-1 (parental, papillary thyroid carcinoma)
In words: Cellular RET degradation, AlphaLISA, TPC-1 cell line. Conditions: for Dmax: TPC1, human, 24 h, read-out: Cell Density TPC-1/CCDC6-RET Ymax %; for DC50: read-out: Cell Density TPC-1/CCDC6-RET DC50, half-maximal degradation concentration, TPC-1 (CCDC6-RET), 24 hrs. Type of test: cell-based. The gist of the method:
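Luminescent AlphaLISA read of RET abundance in lysates after 24 h compound exposure (37 °C, 2% FBS DMEM) of CCDC6-RET-bearing TPC-1 cells. % degradation relative to DMSO (high) and media (low) controls, fitted to 4-parameter logistic curve for DC50 and Ymax.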
(In general: In Alpha technology, singlet oxygen from a donor bead excites a nearby acceptor bead.)

T1 sequence (Q16204+P07949 fused): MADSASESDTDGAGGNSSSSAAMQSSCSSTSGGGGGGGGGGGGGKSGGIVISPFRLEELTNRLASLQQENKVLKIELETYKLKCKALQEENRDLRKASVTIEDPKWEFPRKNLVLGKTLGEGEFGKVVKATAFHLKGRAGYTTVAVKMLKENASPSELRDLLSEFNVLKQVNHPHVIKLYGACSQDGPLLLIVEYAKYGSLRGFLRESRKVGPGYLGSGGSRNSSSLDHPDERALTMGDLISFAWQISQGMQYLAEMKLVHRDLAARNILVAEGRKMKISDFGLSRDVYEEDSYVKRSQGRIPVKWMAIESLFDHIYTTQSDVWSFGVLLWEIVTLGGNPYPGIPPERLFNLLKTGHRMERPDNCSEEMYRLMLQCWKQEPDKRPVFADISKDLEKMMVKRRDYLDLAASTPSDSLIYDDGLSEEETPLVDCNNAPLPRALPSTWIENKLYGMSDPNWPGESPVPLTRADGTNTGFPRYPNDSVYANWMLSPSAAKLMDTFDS
T1 sequence (Q96SW2 whole entry, the tested form may be a part): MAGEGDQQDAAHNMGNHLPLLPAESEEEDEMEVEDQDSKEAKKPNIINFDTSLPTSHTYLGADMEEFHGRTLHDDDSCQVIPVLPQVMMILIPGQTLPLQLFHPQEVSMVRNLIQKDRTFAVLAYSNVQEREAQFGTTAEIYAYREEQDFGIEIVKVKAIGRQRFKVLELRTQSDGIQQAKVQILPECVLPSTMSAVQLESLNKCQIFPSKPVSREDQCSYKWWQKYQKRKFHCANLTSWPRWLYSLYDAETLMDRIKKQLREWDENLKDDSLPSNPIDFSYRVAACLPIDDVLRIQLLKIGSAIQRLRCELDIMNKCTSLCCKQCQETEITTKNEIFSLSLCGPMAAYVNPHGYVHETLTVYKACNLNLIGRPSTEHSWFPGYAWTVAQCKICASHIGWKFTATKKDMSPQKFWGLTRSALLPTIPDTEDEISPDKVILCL
T1 sequence (Q16531 whole entry partner, the tested form may be a part): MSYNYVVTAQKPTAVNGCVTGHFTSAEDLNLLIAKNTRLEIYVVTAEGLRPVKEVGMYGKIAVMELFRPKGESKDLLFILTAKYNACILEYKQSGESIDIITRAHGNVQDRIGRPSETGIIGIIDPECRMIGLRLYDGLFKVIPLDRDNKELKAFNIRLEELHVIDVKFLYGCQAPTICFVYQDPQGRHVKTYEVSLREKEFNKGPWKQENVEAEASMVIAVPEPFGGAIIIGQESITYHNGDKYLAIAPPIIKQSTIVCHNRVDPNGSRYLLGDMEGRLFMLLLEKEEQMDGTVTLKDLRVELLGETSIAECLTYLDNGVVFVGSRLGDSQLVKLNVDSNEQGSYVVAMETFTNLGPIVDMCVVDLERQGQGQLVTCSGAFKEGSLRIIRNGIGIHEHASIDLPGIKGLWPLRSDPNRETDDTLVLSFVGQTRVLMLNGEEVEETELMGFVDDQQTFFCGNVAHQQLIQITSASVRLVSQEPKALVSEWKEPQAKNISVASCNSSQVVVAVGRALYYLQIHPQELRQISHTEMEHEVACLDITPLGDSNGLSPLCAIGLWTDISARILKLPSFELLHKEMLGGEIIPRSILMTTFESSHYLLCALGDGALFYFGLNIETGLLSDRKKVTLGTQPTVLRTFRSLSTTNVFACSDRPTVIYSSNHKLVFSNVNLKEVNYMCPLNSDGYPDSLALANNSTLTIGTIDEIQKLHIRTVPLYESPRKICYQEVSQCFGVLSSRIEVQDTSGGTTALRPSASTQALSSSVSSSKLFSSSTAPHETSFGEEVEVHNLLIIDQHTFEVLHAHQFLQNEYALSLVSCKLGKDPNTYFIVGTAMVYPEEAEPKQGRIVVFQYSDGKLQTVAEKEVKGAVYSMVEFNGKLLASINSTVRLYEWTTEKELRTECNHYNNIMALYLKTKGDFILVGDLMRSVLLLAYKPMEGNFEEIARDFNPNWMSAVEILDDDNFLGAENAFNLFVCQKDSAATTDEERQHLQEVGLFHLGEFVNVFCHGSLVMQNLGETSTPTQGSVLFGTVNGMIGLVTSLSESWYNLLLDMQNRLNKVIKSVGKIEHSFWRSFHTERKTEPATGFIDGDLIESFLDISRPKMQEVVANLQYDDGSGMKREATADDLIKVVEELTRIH

With `CCOc1cc(-c2ccc(N3CCC(COCc4cn(CCCCN5CCN(c6ccc7c(c6)CN(C6CCC(=O)NC6=O)C7=O)CC5)nn4)(NC(=O)c4cc(F)ccc4F)CC3)nc2)c2c(C#N)cnn2c1` (stereo not shown) [Example 48, N-[1-[5-(3-cyano-6-ethoxy-pyrazolo[1,5-a]pyridin-4-yl)-2-pyridyl]-4-[[1-[4-[4-[2-(2,6-dioxo-3-piperidyl)-1-oxo-isoindolin-5-yl]piperazin-1-yl]butyl]triazol-4-yl]methoxymethyl]-4-piperidyl]-2,5-difluoro-benzamide], the Dmax is greater than 90% and the DC50 is 0.002 to 0.01 µM.

On to `CCOc1cc(-c2ccc(N3CCC(CN4CCN(C(=O)CCCCCCCCNc5ccc6c(N7CCC(=O)NC7=O)nn(C)c6c5)CC4)(NC(=O)c4cc(F)ccc4F)CC3)nc2)c2c(C#N)cnn2c1` [Example 24, N-[1-(5-{3-cyano-6-ethoxypyrazolo[1,5-a]pyridin-4-yl}pyridin-2-yl)-4-{[4-(9-{[3-(2,4-dioxo-1,3-diazinan-1-yl)-1-methyl-1H-indazol-6-yl]amino}nonanoyl)piperazin-1-yl]methyl}piperidin-4-yl]-2,5-difluorobenzamide], for which the Dmax was in the range of 60 to 90% and the DC50 was 0.01 to 0.1 µM.

As for `CCOc1cc(-c2ccc(N3CCC(CN4CCN(C(=O)CCCCCN5CCC(c6ccc7c(N8CCC(=O)NC8=O)nn(C)c7c6)CC5)CC4)(NC(=O)c4cc(F)ccc4F)CC3)nc2)c2c(C#N)cnn2c1` [Example 42, N-(1-(5-(3-cyano-6-ethoxypyrazolo[1,5-a]pyridin-4-yl)pyridin-2-yl)-4-((4-(6-(4-(3-(2,4-dioxotetrahydropyrimidin-1(2H)-yl)-1-methyl-1H-indazol-6-yl)piperidin-1-yl)hexanoyl)piperazin-1-yl)methyl)piperidin-4-yl)-2,5-difluorobenzamide], the DC50 was less than 0.002 µM.

Take `CCOc1cc(-c2ccc(N3CCC(CN4CCC5(CC4)CCN(C(=O)CCN4CCC(c6ccc7c(c6)CN(C6CCC(=O)NC6=O)C7=O)CC4)CC5)(NC(=O)c4cc(F)ccc4F)CC3)nc2)c2c(C#N)cnn2c1` (stereo not shown) [Example 88, N-[1-(5-{3-cyano-6-ethoxypyrazolo[1,5-a]pyridin-4-yl}pyridin-2-yl)-4-{[9-(3-{4-[2-(2,6-dioxopiperidin-3-yl)-1-oxo-2,3-dihydro-1H-isoindol-5-yl]piperidin-1-yl}propanoyl)-3,9-diazaspiro[5.5]undecan-3-yl]methyl}piperidin-4-yl]-2,5-difluorobenzamide]: the Dmax was greater than 90% and the DC50 lay in the range of 0.01 to 0.1 µM.

For `CCOc1cc(-c2ccc(N3CCC(CN4CCC(CN5CCN(c6ccc7c(c6)CN(C6CCC(=O)NC6=O)C7=O)CC5)CC4)(NC(=O)c4cc(F)ccc4F)CC3)nc2)c2c(C#N)cnn2c1` (stereo not shown) [Example 69, N-(1-(5-(3-cyano-6-ethoxypyrazolo[1,5-a]pyridin-4-yl)pyridin-2-yl)-4-((4-((4-(2-(2,6-dioxopiperidin-3-yl)-1-oxoisoindolin-5-yl)piperazin-1-yl)methyl)piperidin-1-yl)methyl)piperidin-4-yl)-2,5-difluorobenzamide], the Dmax was greater than 90% and the DC50 was less than 0.002 µM.

Turning to `CCOc1cc(-c2ccc(N3CCC(CN4CCN(C(=O)CCN5CCC6(CC5)CCN(c5ccc7c(c5)CN(C5CCC(=O)NC5=O)C7=O)CC6)CC4)(NC(=O)c4cc(F)ccc4F)CC3)nc2)c2c(C#N)cnn2c1` (stereo not shown) [Example 91, N-[1-(5-{3-cyano-6-ethoxypyrazolo[1,5-a]pyridin-4-yl}pyridin-2-yl)-4-{[4-(3-{9-[2-(2,6-dioxopiperidin-3-yl)-1-oxo-2,3-dihydro-1H-isoindol-5-yl]-3,9-diazaspiro[5.5]undecan-3-yl}propanoyl)piperazin-1-yl]methyl}piperidin-4-yl]-2,5-difluorobenzamide], the Dmax is 60 to 90% and the DC50 was less than 0.002 µM.

`CCOc1cc(-c2ccc(N3CCC(CN4CCN(C(=O)CCN5CCC(c6ccc7c(c6)C(=O)N(C6CCC(=O)NC6=O)C7)CC5)CC4)(C(=O)NC(C)C)CC3)nc2)c2c(C#N)cnn2c1` (stereo not shown) [Example 76, 1-(5-(3-cyano-6-ethoxypyrazolo[1,5-a]pyridin-4-yl)pyridin-2-yl)-4-((4-(3-(4-(2-(2,6-dioxopiperidin-3-yl)-3-oxoisoindolin-5-yl)piperidin-1-yl)propanoyl)piperazin-1-yl)methyl)-N-isopropylpiperidine-4-carboxamide]: the Dmax fell in the range of 60 to 90% and the DC50 is 0.01 to 0.1 µM.

On to `CCOc1cc(-c2ccc(N3CCC(CN4CCN(C(=O)C5CC6(CC(Nc7ccc8c(N9CCC(=O)NC9=O)nn(C)c8c7)C6)C5)CC4)(NC(=O)c4cc(F)ccc4F)CC3)nc2)c2c(C#N)cnn2c1` (stereo not shown) [Example 93, N-[1-(5-{3-cyano-6-ethoxypyrazolo[1,5-a]pyridin-4-yl}pyridin-2-yl)-4-{[4-(6-{[3-(2,4-dioxo-1,3-diazinan-1-yl)-1-methyl-1H-indazol-6-yl]amino}spiro[3.3]heptane-2-carbonyl)piperazin-1-yl]methyl}piperidin-4-yl]-2,5-difluorobenzamide], for which the Dmax is greater than 90% and the DC50 was 0.002 to 0.01 µM.

With `CCOc1cc(-c2ccc(N3CCC(COCCN4CCN(C(=O)CCCCN5CCN(c6ccc7c(c6)CN(C6CCC(=O)NC6=O)C7=O)CC5)CC4)(NC(=O)c4cc(F)ccc4F)CC3)nc2)c2c(C#N)cnn2c1` (stereo not shown) [Example 35, N-[1-[5-(3-cyano-6-ethoxy-pyrazolo[1,5-a]pyridin-4-yl)-2-pyridyl]-4-[2-[4-[5-[4-[2-(2,6-dioxo-3-piperidyl)-1-oxo-isoindolin-5-yl]piperazin-1-yl]pentanoyl]piperazin-1-yl]ethoxymethyl]-4-piperidyl]-2,5-difluoro-benzamide], the Dmax was greater than 90% and the DC50 was 0.01 to 0.1 µM.

Turning to `CCOc1cc(-c2ccc(N3CCC(CN(C(=O)CCN4CCN(c5ccc6c(c5)C(=O)N(C5CCC(=O)NC5=O)C6)CC4)C(C)C)(NC(=O)c4cc(F)ccc4F)CC3)nc2)c2c(C#N)cnn2c1` (stereo not shown) [Example 167, N-[1-(5-{3-cyano-6-ethoxypyrazolo[1,5-a]pyridin-4-yl}pyridin-2-yl)-4-[(3-{4-[2-(2,6-dioxopiperidin-3-yl)-3-oxo-2,3-dihydro-1H-isoindol-5-yl]piperazin-1-yl}-N-(propan-2-yl)propanamido)methyl]piperidin-4-yl]-2,5-difluorobenzamide], the Dmax lay in the range of 60 to 90% and the DC50 is 0.002 to 0.01 µM.

Take `CCOc1cc(-c2ccc(N3CCC(NC(=O)c4cc(F)ccc4F)(C(=O)NCCN4CCC(c5ccc6c(c5)CN(C5CCC(=O)NC5=O)C6=O)CC4)CC3)nc2)c2c(C#N)cnn2c1` (stereo not shown) [Example 156, 1-(5-{3-cyano-6-ethoxypyrazolo[1,5-a]pyridin-4-yl}pyridin-2-yl)-4-(2,5-difluorobenzamido)-N-(2-{4-[2-(2,6-dioxopiperidin-3-yl)-1-oxo-2,3-dihydro-1H-isoindol-5-yl]piperidin-1-yl}ethyl)piperidine-4-carboxamide]: the Dmax fell in the range of 60 to 90% and the DC50 lay in the range of 0.002 to 0.01 µM.

For the compound `CCOc1cc(-c2ccc(N3CCC(COCCN4CCN(C(=O)CCN5CCC(c6ccc7c(c6)C(=O)N(C6CCC(=O)NC6=O)C7)CC5)CC4)(NC(=O)c4cc(F)ccc4F)CC3)nc2)c2c(C#N)cnn2c1` (stereo not shown) [Example 32, N-[1-[5-(3-cyano-6-ethoxy-pyrazolo[1,5-a]pyridin-4-yl)-2-pyridyl]-4-[2-[4-[3-[4-[2-(2,6-dioxo-3-piperidyl)-3-oxo-isoindolin-5-yl]-1-piperidyl]propanoyl]piperazin-1-yl]ethoxymethyl]-4-piperidyl]-2,5-difluoro-benzamide], the Dmax lay in the range of 60 to 90% and the DC50 is 0.01 to 0.1 µM.

Take `CCOc1cc(-c2ccc(N3CCC(Cc4ccccc4)(NC(=O)CN4CCN(C(=O)CCN5CCC(c6ccc7c(c6)C(=O)N(C6CCC(=O)NC6=O)C7)CC5)CC4)CC3)nc2)c2c(C#N)cnn2c1` (stereo not shown) [Example 53, N-[4-benzyl-1-[5-(3-cyano-6-ethoxy-pyrazolo[1,5-a]pyridin-4-yl)-2-pyridyl]-4-piperidyl]-2-[4-[3-[4-[2-(2,6-dioxo-3-piperidyl)-3-oxo-isoindolin-5-yl]-1-piperidyl]propanoyl]piperazin-1-yl]acetamide]: the Dmax is 60 to 90% and the DC50 is 0.01 to 0.1 µM.

As to `CCOc1cc(-c2ccc(N3CCC(CN4CCN(C(=O)CCCCCCCCCCNC(=O)COc5cccc6c5CN(C5CCC(=O)NC5=O)C6=O)CC4)(NC(=O)c4cc(F)ccc4F)CC3)nc2)c2c(C#N)cnn2c1` (stereo not shown) [Example 28, N-[1-(5-{3-cyano-6-ethoxypyrazolo[1,5-a]pyridin-4-yl}pyridin-2-yl)-4-({4-[11-(2-{[2-(2,6-dioxopiperidin-3-yl)-1-oxo-2,3-dihydro-1H-isoindol-4-yl]oxy}acetamido)undecanoyl]piperazin-1-yl}methyl)piperidin-4-yl]-2,5-difluorobenzamide], the Dmax fell in the range of 60 to 90% and the DC50 is 0.01 to 0.1 µM.

As to `CCOc1cc(-c2ccc(N3CCC(Cc4ccccc4)(NC(=O)N4CCC(CN5CCC(c6ccc7c(c6)C(=O)N(C6CCC(=O)NC6=O)C7)CC5)CC4)CC3)nc2)c2c(C#N)cnn2c1` (stereo not shown) [Example 55], the Dmax was 60 to 90% and the DC50 is 0.002 to 0.01 µM.

Take `CCOc1cc(-c2ccc(N3CCC(CN4CCN(C(=O)CCCCN5CCC(c6ccc7c(c6)C(=O)N(C6CCC(=O)NC6=O)C7)CC5)CC4)(NC(=O)c4cc(F)ccc4F)CC3)nc2)c2c(C#N)cnn2c1` (stereo not shown) [Example 18, N-[1-(5-{3-cyano-6-ethoxypyrazolo[1,5-a]pyridin-4-yl}pyridin-2-yl)-4-{[4-(5-{4-[2-(2,6-dioxopiperidin-3-yl)-3-oxo-2,3-dihydro-1H-isoindol-5-yl]piperidin-1-yl}pentanoyl)piperazin-1-yl]methyl}piperidin-4-yl]-2,5-difluorobenzamide]: the Dmax was greater than 90% and the DC50 is less than 0.002 µM.

For the origin of these results see patent US20260356830A1, “COMPOUNDS FOR MODULATING RET PROTEIN” (Bristol-Myers Squibb Company, priority 2022, published 2026).
